# From PMC12592420, “A mismatch in enzyme-redox partnerships underlies divergent cytochrome P450 activities between human hepatocytes and microsomes” (Communications Biology, 2025)
# “And” between values parts separate entries of the source, which are not always exact repeats. Equal values may be shown once.
# What was measured:
# [1] = CLint in NADPH-supplemented human liver microsomes; settings: for HLM/HH (ratio of scaled CLint,u): NADPH-HLM average over HH average; for CLint scaled at 1 µM / microsomal CLint at 1 µM: human
# Protocol: (§1) Calculation and scaling of CLint,u was done using the equation below and 45 mg of microsomal protein per gram of liver. HLMCLint,u=ln2/x1/t1/2(min)xmLincubation/mgmicrosomalproteinx45mgmicrosomalprotein/gliverx21gliver/kg/Fuinc
# in vitro [2] = settings: human, hepatocytes
# Protocol: (§2) Cryopreserved HH prepared from a mixed-gender pool of twenty donors (product X008000, lot EEO, BIOIVT), ten-donors (product S01205, lot MTJ, BIOIVT), ten donors (product S01205 lot LYB, BIOIVT) were utilised in the experiments. Cryopreserved HH were rapidly thawed in a water bath set at 37 °C and added to Leibovitz media that had been pre-warmed in the water bath. The suspension of cells was mixed gently and centrifuged at 40 × g for 4 min at room temperature. Excess media was removed, and the cells were re-suspended in 5 mL of fresh Leibovitz media. The cells were counted using an automated cell counter (Cellometer).
# human hepatocytes (HH) = experiment: in vitro; settings: for HH_CLint: single determination; for HH_CLint / HH_scaled_CLint,u: Fig. 4a
# Protocol: as §2
# Cytb5R = Cytb5R for cofactor; cited from earlier work
# POR = POR for cofactor; cited from earlier work
# [3] = CLint in NADH-supplemented human liver microsomes; settings: for microsomal CLint at 1 µM / CLint scaled at 1 µM: human
# Protocol: as §1
# [4] = Free fraction in HLM incubation, equilibrium dialysis; assay type: in vitro ADME, human; settings: fraction unbound, measured or estimated by in silico models of Fuinc
# rat hepatocytes = experiment: Free fraction in rat hepatocytes as surrogate for HH, equilibrium dialysis; assay type: in vitro ADME; settings: fraction unbound, measured or estimated by in silico models of Fuinc
# CYP1A2-Cytb5R = target: T1, CYP1A2-Cytb5R (Homo sapiens, UniProt P05177); experiment: Turnover by non-canonical recombinant CYP1A2-Cytb5R; assay type: in vitro ADME; settings: noncanonical CYP1A2-Cytb5R
# T1 construct: purchased BioIVT (custom synthesis) CE00001 (CYP1A2), batch CPD034-1A2-30; host or cells: bactosomes
# T1 sequence (P05177 1-516): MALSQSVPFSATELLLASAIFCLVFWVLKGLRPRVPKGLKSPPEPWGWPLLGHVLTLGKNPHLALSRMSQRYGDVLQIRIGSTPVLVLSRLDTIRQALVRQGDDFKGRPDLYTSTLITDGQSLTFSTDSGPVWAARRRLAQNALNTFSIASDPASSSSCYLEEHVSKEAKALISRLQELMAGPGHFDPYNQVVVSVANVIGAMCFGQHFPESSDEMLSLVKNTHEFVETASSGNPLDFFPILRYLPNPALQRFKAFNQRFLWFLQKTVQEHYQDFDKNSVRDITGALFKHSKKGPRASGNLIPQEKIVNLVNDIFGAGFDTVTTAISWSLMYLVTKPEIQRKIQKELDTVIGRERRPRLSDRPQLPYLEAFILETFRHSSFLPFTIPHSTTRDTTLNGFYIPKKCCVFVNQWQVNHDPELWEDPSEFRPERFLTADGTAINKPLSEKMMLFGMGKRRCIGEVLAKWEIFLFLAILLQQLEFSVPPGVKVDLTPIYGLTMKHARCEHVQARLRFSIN
# Description: As commercial recombinant human CYPs co-express the individual CYP and reductase with an option to include cytochrome b5. A custom synthesis co-expressing CYP3A4 or CYP1A2 and Cytb5R plus cytochrome b5 was, therefore, ordered from BioIVT and the bactosomes were compared with canonical CYP-POR enzymes plus cytochrome b5.
# [5] = LogD pH 7.4, octanol/phosphate buffer; settings: for logD: octanol/phosphate buffer, pH 7.4; for LogD pH 7.4: at least one determination
# [6] = Intrinsic permeability in Caco-2 cells with efflux inhibited; settings: human, Caco-2
# Caco-2 cells = experiment: as above; settings: intrinsic (passive) permeability, at least one determination
# in vitro [7] = settings: human, Caco-2
# [8] = NADPH-HLM, individual determinations 1-3, Fig. 1
# [9] = human liver microsomes + NADPH, pH 7.4, Scaled HLM CLint,u, NADPH-HLM, individual determinations 1-3, Fig. 1
# [10] = human liver microsomes, pH 7.4, Scaled HLM CLint,u average, NADPH-HLM, average, Fig. 1
# [11] = Scaled HH CLint,u average, HH, average, Fig. 1
# [12] = Scaled HH CLint,u, HH, individual determinations 1-3, Fig. 1
# [13] = HH, individual determinations 1-3, Fig. 1
# [14] = human liver microsomes + NADPH, pH 7.4
# [15] = human liver microsomes, pH 7.4, NADPH_HLM_scaled_CLint,u, Fig. 4a,d
# [16] = human liver microsomes + NADH, pH 7.4
# [17] = 1 µM, single determination, Fig. 4a,d
molecule,measurement,setting,value
C[C@]12CCC(=O)C=C1CC[C@@H]1[C@@H]2[C@@H](O)C[C@@]2(C)[C@H]1CC[C@]2(O)C(=O)CO [hydrocortisone],"HLM/HH (ratio of scaled CLint,u)",[1]; Fig. 1,2.834
same,"Scaled HLM CLint,u",[1]; [8],57.5167 mL/min/kg and 51.9108 mL/min/kg
same,CLint scaled at 1 µM,[1]; [9],54.9 mL/min/kg
same,CLint scaled at 1 µM,[1]; [10],54.8 mL/min/kg
same,CLint scaled,in vitro [2]; [11],19.3 mL/min/kg
same,CLint scaled,in vitro [2]; [12],22.4 mL/min/kg
same,"Scaled HH CLint,u",human hepatocytes (HH); [13],16.444 mL/min/kg and 19.1349 mL/min/kg
NC(=O)C1=CN([C@@H]2O[C@H](COP(=O)(O)OP(=O)(O)OC[C@H]3O[C@@H](n4cnc5c(N)ncnc54)[C@H](OP(=O)(O)O)[C@@H]3O)[C@@H](O)[C@H]2O)C=CC1 [NADPH],Km,Cytb5R,1000 µM
same,Km,POR,2 to 15 µM
C[C@]12C=CC(=O)C=C1CC[C@@H]1[C@@H]2C(=O)C[C@@]2(C)[C@H]1CC[C@]2(O)C(=O)CO [Prednisone],"HLM/HH (ratio of scaled CLint,u)",[1]; Fig. 1,0.4866
same,"Scaled HLM CLint,u",[1]; [8],26.9421 mL/min/kg and 25.4228 mL/min/kg
same,CLint scaled at 1 µM,[1]; [9],29.8 mL/min/kg
same,CLint scaled at 1 µM,[1]; [10],27.4 mL/min/kg
same,CLint scaled,in vitro [2]; [11],56.3 mL/min/kg
same,CLint scaled,in vitro [2]; [12],72.8 mL/min/kg
same,"Scaled HH CLint,u",human hepatocytes (HH); [13],43.6458 mL/min/kg and 52.3108 mL/min/kg
CCC1=C[C@@H]2CN(C1)Cc1c([nH]c3ccccc13)[C@@](C(=O)OC)(c1cc3c(cc1OC)N(C)[C@H]1[C@@](O)(C(=O)OC)[C@H](OC(C)=O)[C@]4(CC)C=CCN5CC[C@]31[C@@H]54)C2 [Vinorelbin],"HLM/HH (ratio of scaled CLint,u)",[1]; Fig. 1,13.7107
same,"Scaled HLM CLint,u",[1]; [8],640.935 mL/min/kg and 717.808 mL/min/kg
same,CLint scaled at 1 µM,[1]; [9],436 mL/min/kg
same,CLint scaled at 1 µM,[1]; [10],598 mL/min/kg
same,CLint scaled at 1 µM,"in vitro [2]; Scaled HH CLint,u",38.9 mL/min/kg
same,CLint scaled at 1 µM,"in vitro [2]; Scaled HH CLint,u average",43.6 mL/min/kg
same,"Scaled HH CLint,u","human hepatocytes (HH); human, hepatocytes, 1 µM",48.4191 mL/min/kg
NC(=O)C1=CN([C@@H]2O[C@H](COP(=O)(O)OP(=O)(O)OC[C@H]3O[C@@H](n4cnc5c(N)ncnc54)[C@H](O)[C@@H]3O)[C@@H](O)[C@H]2O)C=CC1 [NADH],Km,Cytb5R,6 µM
same,Km,POR,48000 µM
C[C@]12CC[C@H]3[C@@H](CCC4=CC(=O)CC[C@@]43C)[C@@H]1CC[C@@H]2O [Testosterone],"Scaled HLM CLint,u",[1]; [8],250.062 mL/min/kg and 237.027 mL/min/kg
same,CLint scaled at 1 µM,"[1]; microsomes, pH 7.4, Scaled HLM CLint,u average, NADPH-HLM, average, Fig. 1",246 mL/min/kg
same,CLint scaled at 1 µM,"[1]; microsomes, pH 7.4, Scaled HLM CLint,u, NADPH-HLM, individual determinations 1-3, Fig. 1",251 mL/min/kg
same,CLint scaled,in vitro [2]; [11],1320 mL/min/kg
same,CLint scaled,in vitro [2]; [12],1780 mL/min/kg
same,"Scaled HH CLint,u",human hepatocytes (HH); [13],1005.17 mL/min/kg and 1161.02 mL/min/kg
CCOc1ccc(NC(C)=O)cc1 [Phenacetin],microsomal CLint at 1 µM,[1]; [14],24.5 µL/min/mg
same,CLint scaled at 1 µM,[1]; [15],24.4 mL/min/kg
same,microsomal CLint at 1 µM,[3]; [16],5.68 µL/min/mg
same,CLint scaled at 1 µM,"[3]; human liver microsomes, pH 7.4",5.66 mL/min/kg
same,hepatocyte CLint,in vitro [2]; both,7.38 µL/min/1e6 cells
same,CLint scaled,"in vitro [2]; HH_scaled_CLint,u, Fig. 4a",19.5 mL/min/kg
same,fu_HLM,[4],0.948
same,fu_ratHH,rat hepatocytes,0.955
same,turnover (metabolite formation or disappearance of parent),CYP1A2-Cytb5R,no detectable turnover
same,logD,[5],1.48
same,"Papp at 2 h, 10 µM",[6],76.1 ×10⁻⁶ cm/s
CCN(C(=O)c1cc(F)ccc1Oc1nncnc1N1CCC2(C1)CN([C@H](CCCN(C)CCOC)C(C)C)C2)C(C)C [Bleximenib],HLM_NADPH CLint,[1]; [17],34.3 µL/min/mg
same,"NADPH_HLM_scaled_CLint,u","[1]; Fig. 4a,d",44.9563 mL/min/kg
same,HH_CLint,human hepatocytes (HH); 1 µM,1.166 uL/min/106 cells
same,"HH_scaled_CLint,u",human hepatocytes (HH),3.701 mL/min/kg
same,fu_HLM,[4],0.721
same,fu_ratHH,rat hepatocytes,0.794
same,LogD pH 7.4,[5],0.74
same,Caco-2 Papp,Caco-2 cells,0.575 10-6 cm/s
CN(C)CCCOc1nn(Cc2ccccc2)c2ccccc12 [Benzydamine],microsomal CLint at 1 µM,[1]; [14],21.1 µL/min/mg
same,CLint scaled at 1 µM,[1]; [15],56 mL/min/kg
same,microsomal CLint at 1 µM,[3]; [16],3 µL/min/mg
same,CLint scaled at 1 µM,"[3]; human liver microsomes, pH 7.4",7.96 mL/min/kg
same,hepatocyte CLint at 1 µM,in vitro [2]; both,6.69 µL/min/1e6 cells
same,CLint scaled at 1 µM,"in vitro [2]; HH_scaled_CLint,u",26.2 mL/min/kg
same,fu_HLM,[4],0.356
same,fu_ratHH,rat hepatocytes,0.643
same,logD,[5],2.25
same,"Papp at 2 h, 10 µM",[6],27.4 ×10⁻⁶ cm/s
AZ23,HLM_NADPH CLint,[1]; [17],56.607 µL/min/mg
same,"NADPH_HLM_scaled_CLint,u","[1]; Fig. 4a,d",91.7558 mL/min/kg
same,HLM_NADH CLint,[3]; [17],6.34 µL/min/mg
same,"NADH_HLM_scaled_CLint,u","[3]; Fig. 4a,d",10.2767 mL/min/kg
same,HH_CLint,human hepatocytes (HH); 1 µM,3.309 uL/min/106 cells
same,"HH_scaled_CLint,u",human hepatocytes (HH),14.4518 mL/min/kg
same,fu_HLM,[4],0.583
same,fu_ratHH,rat hepatocytes,0.577
same,LogD pH 7.4,[5],3.08
same,Caco-2 Papp,Caco-2 cells,66.417 10-6 cm/s
C[C@]12C=CC(=O)C=C1CC[C@@H]1[C@@H]2[C@@H](O)C[C@@]2(C)[C@H]1CC[C@]2(O)C(=O)CO [Prednisolone],"HLM/HH (ratio of scaled CLint,u)",[1]; Fig. 1,2.917
same,"Scaled HLM CLint,u",[1]; [8],38.7639 mL/min/kg
same,CLint scaled at 1 µM,[1]; [9],40.8 mL/min/kg
same,CLint scaled at 1 µM,[1]; [10],40.1 mL/min/kg
same,CLint scaled,in vitro [2]; [11],13.7 mL/min/kg
same,CLint scaled,in vitro [2]; [12],14.7 mL/min/kg
same,"Scaled HH CLint,u",human hepatocytes (HH); [13],12.4648 mL/min/kg and 14.0629 mL/min/kg
O=C1Nc2ccc(Cl)cc2C(c2ccccc2Cl)=NC1O (centres unmarked) [Lorazepam],microsomal CLint at 1 µM,"[1]; microsomes, pH 7.4, HLM_NADPH CLint, 1 µM, single determination, Fig. 4a,d",4.99 µL/min/mg
same,CLint scaled at 1 µM,"[1]; microsomes, pH 7.4, NADPH_HLM_scaled_CLint,u, Fig. 4a,d",6.51 mL/min/kg
same,microsomal CLint at 1 µM,"[3]; microsomes, pH 7.4, HLM_NADH CLint, 1 µM, single determination, Fig. 4a,d",3 µL/min/mg
same,CLint scaled at 1 µM,"[3]; microsomes, pH 7.4, NADH_HLM_scaled_CLint,u, Fig. 4a,d",3.92 mL/min/kg
same,hepatocyte CLint,"in vitro [2]; both, HH_CLint, 1 µM, single determination, Fig. 4a",2.77 µL/min/1e6 cells
same,CLint scaled,"in vitro [2]; HH_scaled_CLint,u, Fig. 4a",9.63 mL/min/kg
same,fu_HLM,[4],0.724
same,fu_ratHH,rat hepatocytes,0.724
same,Papp,in vitro [7],67.2 ×10⁻⁶ cm/s
